Measurements taken from paper PMC5072635 (PLoS ONE, 2016).
Values after ≈ are worked out from the molar mass of the structure shown. Values joined by “and” are separate entries in the source; they are usually repeats but may differ in a detail not shown here. Equal entries are not always repeated. Where two headings read alike, the source gives them in different places.

Tests used:
[1] = target: human serum albumin (HSA) (Homo sapiens, UniProt P02768); assay: Isothermal titration calorimetry with human serum albumin; conditions: for ΔH: room temperature, pH 7.4
human serum albumin (HSA), sequence (P02768 25-609): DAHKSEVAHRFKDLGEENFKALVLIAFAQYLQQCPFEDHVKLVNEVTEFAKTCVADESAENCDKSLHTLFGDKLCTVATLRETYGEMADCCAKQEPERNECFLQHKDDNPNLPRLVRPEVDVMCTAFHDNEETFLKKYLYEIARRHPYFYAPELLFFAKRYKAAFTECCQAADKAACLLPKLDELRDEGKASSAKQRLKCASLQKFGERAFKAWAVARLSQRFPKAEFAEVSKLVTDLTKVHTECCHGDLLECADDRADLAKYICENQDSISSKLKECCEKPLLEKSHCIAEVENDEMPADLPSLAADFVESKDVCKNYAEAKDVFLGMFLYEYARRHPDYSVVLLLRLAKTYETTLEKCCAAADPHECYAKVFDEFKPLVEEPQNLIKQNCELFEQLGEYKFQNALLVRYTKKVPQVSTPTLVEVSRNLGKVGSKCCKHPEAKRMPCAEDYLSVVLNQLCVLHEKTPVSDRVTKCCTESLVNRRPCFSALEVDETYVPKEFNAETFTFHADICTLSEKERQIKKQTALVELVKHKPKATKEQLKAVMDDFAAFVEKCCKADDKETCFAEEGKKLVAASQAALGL
Protocol: (§1) All samples were degassed, and ITC was performed at room temperature as previously described using MicroCal VP-ITC calorimeter. […] The data were analyzed using a single-site binding model provided in the ITC analysis software package. […] The values for ΔH, Kd and stoichiometry averaged ± standard deviation. […] The values for stoichiometry and binding affinity were derived from the ITC experiments.
150 μM of ethanol solubilized GML was placed in the syringe and injected into the sample chamber twenty one times with 180 seconds interval between injections.

[2] = target: T1, bovine serum albumin (BSA) (Bos taurus, UniProt P02769); assay: Isothermal titration calorimetry with bovine serum albumin; assay type: binding
T1 construct: purchased Sigma Aldrich
T1 sequence (P02769 25-607): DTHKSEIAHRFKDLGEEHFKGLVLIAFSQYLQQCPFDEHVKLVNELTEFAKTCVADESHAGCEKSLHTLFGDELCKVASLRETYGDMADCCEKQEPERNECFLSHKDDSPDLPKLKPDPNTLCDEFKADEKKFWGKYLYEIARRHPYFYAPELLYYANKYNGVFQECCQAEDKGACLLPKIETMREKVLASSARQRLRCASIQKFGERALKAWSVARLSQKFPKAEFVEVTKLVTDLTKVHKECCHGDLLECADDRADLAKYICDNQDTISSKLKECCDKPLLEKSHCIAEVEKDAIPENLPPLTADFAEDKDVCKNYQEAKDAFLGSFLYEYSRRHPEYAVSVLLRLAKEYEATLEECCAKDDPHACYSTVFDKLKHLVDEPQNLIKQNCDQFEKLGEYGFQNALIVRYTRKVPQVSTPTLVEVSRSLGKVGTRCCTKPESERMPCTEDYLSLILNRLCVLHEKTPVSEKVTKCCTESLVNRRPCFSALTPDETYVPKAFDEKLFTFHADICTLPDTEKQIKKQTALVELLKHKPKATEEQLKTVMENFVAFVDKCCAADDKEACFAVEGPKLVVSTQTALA
Protocol: (§2) Supplementary file pone.0165083.s001.pdf: S1 Fig ITC curves of GML with various mammalian albumins. 150μM of GML was injected incrementally into the sample chamber containing 5μM of mammalian albumins. […] (PDF) Click here for additional data file.

[3] = target: T2, pig serum albumin (PSA) (Sus scrofa, UniProt P08835); assay: Isothermal titration calorimetry with pig serum albumin; assay type: binding
T2 construct: purchased Sigma Aldrich
T2 sequence (P08835 25-607): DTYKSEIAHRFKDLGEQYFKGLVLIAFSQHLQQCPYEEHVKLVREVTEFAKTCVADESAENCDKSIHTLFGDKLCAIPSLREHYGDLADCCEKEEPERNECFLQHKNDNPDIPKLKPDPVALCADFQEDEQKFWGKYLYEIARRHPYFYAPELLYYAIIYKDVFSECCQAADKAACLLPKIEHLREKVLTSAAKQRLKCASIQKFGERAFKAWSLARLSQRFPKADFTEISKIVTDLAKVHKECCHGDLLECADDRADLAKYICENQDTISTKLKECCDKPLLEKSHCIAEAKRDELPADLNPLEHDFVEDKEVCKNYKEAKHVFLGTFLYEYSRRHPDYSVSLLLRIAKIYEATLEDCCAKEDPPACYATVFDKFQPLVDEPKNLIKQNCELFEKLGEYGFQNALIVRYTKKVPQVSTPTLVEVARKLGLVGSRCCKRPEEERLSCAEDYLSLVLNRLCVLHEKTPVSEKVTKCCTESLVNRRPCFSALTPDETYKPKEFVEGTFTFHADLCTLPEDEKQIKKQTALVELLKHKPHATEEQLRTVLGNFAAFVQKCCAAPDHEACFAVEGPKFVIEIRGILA
Protocol: as §2

[4] = target: T3, rabbit serum albumin (RSA) (Oryctolagus cuniculus, UniProt P49065); assay: Isothermal titration calorimetry with rabbit serum albumin; assay type: binding
T3 construct: purchased Sigma Aldrich
T3 sequence (P49065 25-608): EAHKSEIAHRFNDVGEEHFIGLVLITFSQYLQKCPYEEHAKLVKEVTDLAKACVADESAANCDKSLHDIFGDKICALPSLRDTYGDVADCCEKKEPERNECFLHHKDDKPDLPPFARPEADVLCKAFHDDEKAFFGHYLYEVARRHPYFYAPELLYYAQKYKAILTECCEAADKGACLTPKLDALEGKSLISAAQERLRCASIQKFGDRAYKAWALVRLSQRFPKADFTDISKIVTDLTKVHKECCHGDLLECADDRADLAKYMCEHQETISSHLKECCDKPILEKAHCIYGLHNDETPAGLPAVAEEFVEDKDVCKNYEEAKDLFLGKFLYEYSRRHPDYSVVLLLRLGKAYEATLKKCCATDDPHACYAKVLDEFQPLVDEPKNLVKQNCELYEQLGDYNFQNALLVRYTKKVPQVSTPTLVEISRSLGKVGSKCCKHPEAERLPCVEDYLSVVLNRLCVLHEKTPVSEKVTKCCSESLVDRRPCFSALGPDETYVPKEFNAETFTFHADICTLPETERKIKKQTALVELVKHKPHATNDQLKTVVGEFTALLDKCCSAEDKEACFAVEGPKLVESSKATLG
Protocol: as §2

[5] = target: T4, mouse serum albumin (MSA) (Mus musculus, UniProt P07724); assay: Isothermal titration calorimetry with mouse serum albumin; assay type: binding
T4 construct: purchased Sigma Aldrich
T4 sequence (P07724 25-608): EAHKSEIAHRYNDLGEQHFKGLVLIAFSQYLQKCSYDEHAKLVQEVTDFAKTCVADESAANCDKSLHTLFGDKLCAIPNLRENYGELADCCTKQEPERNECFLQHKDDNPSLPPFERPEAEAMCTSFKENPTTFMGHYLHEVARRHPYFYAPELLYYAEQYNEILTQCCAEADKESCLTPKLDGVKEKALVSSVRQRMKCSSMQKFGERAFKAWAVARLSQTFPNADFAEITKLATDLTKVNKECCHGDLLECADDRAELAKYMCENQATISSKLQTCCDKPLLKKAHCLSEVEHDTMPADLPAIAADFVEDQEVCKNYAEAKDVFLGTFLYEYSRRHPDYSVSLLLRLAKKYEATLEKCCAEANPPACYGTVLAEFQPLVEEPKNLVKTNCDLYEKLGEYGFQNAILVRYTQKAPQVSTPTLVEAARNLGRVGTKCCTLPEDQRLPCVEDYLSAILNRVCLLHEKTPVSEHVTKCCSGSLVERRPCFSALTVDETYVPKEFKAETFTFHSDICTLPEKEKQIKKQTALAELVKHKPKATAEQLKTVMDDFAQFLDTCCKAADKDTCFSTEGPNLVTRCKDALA
Protocol: as §2

[6] = test system: HSA
Protocol: as §1
While the presence of other ligands would increase the proportion of free floating GML unbound to albumin, we assumed there were no other albumin ligands present in the system to simplify our calculations.
(PDF) Click here for additional data file.

[7] = test system: AKT phosphorylation at threonine 308 and serine 473; assay: TCR-induced AKT phosphorylation by immunoblotting in APBTs; assay type: cell-based, human
Protocol: The cells were then incubated on ice with 2 μg/ml anti-CD3 for 30 minutes. […] Cells were then lysed with 2X sample buffer, heated to 95°C, and sonicated.
Cell lysates were separated by polyacrylamide gel electrophoresis and transferred to PVDF. The membranes were blocked in 0.5X SEA BLOCK blocking buffer diluted in PBS. Primary antibodies were incubated overnight at 4°C. Secondary antibodies were incubated with the membrane for 30 minutes at room temperature and then imaged using Licor Odyssey (Lincoln, NE, USA). At least four independent replicates with different human donors were performed for each experiment. Immunoblot band intensity was quantified using Odyssey’s v3.0 software with the intensity of the phospho-specific antibody normalized to the intensity of the GAPDH antibody. To minimize variability between human donors, band intensities were further normalized to maximal band intensity of ethanol vehicle control. The following antibodies were used for immunoblotting: AKT pThr 308 (Cell Signaling), AKT pS473 (Invitrogen), GAPDH (Meridian Life Sciences), and IRDye 800CW or IRDye680-conjugated secondary antibodies (Thermo Scientific).
Cells were stimulated by crosslinking 2 μg/ml of anti-CD3 for various times. Phosphorylation of AKT at threonine 308 and serine 473 were assessed by immunoblotting.

[8] = test system: LAT pY226 microclusters; assay: TIRF microscopy of LAT microcluster formation in APBTs; assay type: cell-based, human
Protocol: (§3) APBTs were stimulated in the presence of 0.1% ethanol control or 10 μg/ml GML with plate-bound anti-CD3 on glass coverslips, fixed with 4% paraformaldehyde, permeabilized with 0.25% Triton-X, and stained as described below. To detect microcluster formation of TCR signaling proteins, antibodies specific for LAT pY226 (BD Pharmingen), PLC-γ pY783 (Cell Signaling, and total AKT (Cell signaling) were incubated with fixed and permeabilized cells overnight for 4°C. Subsequently, conjugated secondary antibodies Dylight Goat anti-rabbit IgG and DyLight 568 Goat anti-rabbit IgG (Biolegend) as well as Alexa Fluor 488 goat anti-mouse IgG1 (Thermo Fisher) were incubated with the cells at room temperature for 2 hours. All images were captured by the Leica AM TIRF MC system using 100x magnification oil immersion objective lens at room temperature at the University of Iowa Central Microscopy Research Facility.
(§4) TIRF microscopy images were processed and analyzed using ImageJ. Quantification of membrane clustering was done by measuring mean pixel intensity in the […] of cells for 60 cells total from at least 3 independent experiments. Similar quantification methods have been used in other published reports.
(§5) (A). […] Pixel intensities of median axis of each cell in images obtained in (A) were quantified and averaged using ImageJ. […]

[9] = test system: PLC-γ1 pY783 microclusters; assay: TIRF microscopy of PLC-γ1 microcluster formation in APBTs; assay type: cell-based, human
Protocol: as §3, §4, §5

[10] = test system: total AKT microclusters; assay: TIRF microscopy of AKT microcluster formation in APBTs; assay type: cell-based, human
Protocol: as §3, §4, §5

[11] = test system: IFN-γ production; assay: ELISA of TCR-induced IFN-γ production by APBTs; assay type: cell-based, human
Protocol: (§6) The cells were then stimulated with plate-bound 2 μg/ml of anti-CD3 (Biolegend) for 24 hours. Protein concentrations of IL-2, IFN-γ, IL-10, and TNF-α in the media supernatants were measured by standard TMB ELISA.
(§7) Cells were plated on 2 μg/ml anti-CD3 coated plates for 24 hours. Extracellular cytokine production for (A) IFN-γ, (B) IL-2, (C) IL-10, or (D) TNFα was measured by ELISA in 3 independent experiments with different human donors.

[12] = test system: IL-2 production; assay: ELISA of TCR-induced IL-2 production by APBTs; assay type: cell-based, human
Protocol: as §6
(§8) Cells were plated on 2 μg/ml anti-CD3 coated plates for 24 hours. Extracellular cytokine production for (A) IFN-γ, (B) IL-2, (C) IL-10, or (D) TNFα was measured by ELISA in 3 independent experiments with different human donors. To statistically confirm that GML is suppressing cytokine production without serum, Student t’s test was done by comparing EtOH treated groups with GML treated groups under the same serum free environment, indicated by the black bars, with # denoting p<0.05.

[13] = test system: IL-10 production; assay: ELISA of TCR-induced IL-10 production by APBTs; assay type: cell-based, human
Protocol: as §6, §7

[14] = test system: TNF-α production; assay: ELISA of TCR-induced TNF-α production by APBTs; assay type: cell-based, human
Protocol: as §6, §8

[15] = cited from earlier work
[16] = ITC, single-site model, 5 μM albumin, 150 μM ligand
[17] = 10 μg/ml GML, serum free media, significant at 5 and 15 minutes post stimulation
[18] = GML doses 10 μg/ml or greater, absence of serum albumin, anti-CD3 24 hours

CCCCCCCCCCCC(=O)OCC(O)CO (stereo not shown) [GML, Glycerol monolaurate]
ΔH [1, 16]: -3.0 ± 1.1 kcal/mol
Kd ([1]; Kd, ITC, single-site model, 5 μM albumin, 150 μM ligand): ~1.4 µM and 1.4 µM
Kd [2]: 2.2 ± 1.1 µM
ΔH ([2]; ITC, single-site model, BSA): -4.5 ± 0.77 kcal/mol
Kd [3]: 4.5 ± 1.6 µM
ΔH ([3]; ITC, single-site model, PSA): -2.0 ± 0.63 kcal/mol
Kd [4]: 5.4 ± 1.3 µM
ΔH ([4]; ITC, single-site model, RSA): -4.5 ± 0.61 kcal/mol
Kd [5]: 6.3 ± 2.7 µM
ΔH ([5]; ITC, single-site model, MSA): -4.9 ± 1.1 kcal/mol
GML molecules bound to HSA ([6]; 10 and 20 μg/ml GML, all HSA concentrations, no other ligands assumed): > 90%
GML bound to albumin ([6]; low-albumin sites (urine, vaginal secretions, CSF etc.), GML doses less than 20 μg/ml): mostly bound
albumin bound to GML ([6]; lymphatic fluid, albumin 40% to 90% of the serum concentration): > 99%
GML molecules bound to albumin ([6]; plasma albumin 35 to 50 g/L, concentrations where GML is soluble, Kd 1.4 μM): > 99%
concentration of GML-HSA complexes relative to free GML molecules ([6]; skin wound exudate albumin 10 to 30 g/L, GML doses between 500 to 5000 μg/ml): within one order of magnitude
GML molecules bound to HSA ([6]; skin wound exudate albumin 10 to 30 g/L, GML doses greater than 5000 μg/ml): < 2%
GML bound to HSA ([6]; skin wound exudate albumin 10 to 30 g/L, GML doses less than 500 μg/ml): > 90%
AKT T308 phosphorylation vs GML alone ([7]; 10 μg/ml GML in 1% HSA, 5 and 15 minutes post stimulation): significantly increased
AKT S473 phosphorylation vs GML alone ([7]; 10 μg/ml GML in 1% HSA, 15 minutes post stimulation): significantly increased
phosphorylation of both AKT residues (T308, S473) post stimulation vs GML treated cells ([7]; 10 μg/ml GML in 1% HSA, below levels in ethanol control): modest increase
AKT S473 phosphorylation vs ethanol control [7, 17]: drastically suppressed
AKT T308 phosphorylation vs ethanol control [7, 17]: drastically suppressed
LAT microcluster formation in GML treated cells ([8]; 10 μg/ml GML in 1% HSA, to levels similar to ethanol and HSA controls): significantly increased
LAT clustering at the membrane ([8]; 10 μg/ml GML, serum free media): drastically decreased
PLC-γ1 clustering ([9]; 10 μg/ml GML alone): inhibits
PLC-γ1 clustering in GML treated cells ([9]; 10 μg/ml GML with 1% HSA): relieves this inhibition
AKT clustering ([10]; 10 μg/ml GML alone): inhibits
AKT clustering in GML treated cells ([10]; 10 μg/ml GML with 1% HSA): relieves this inhibition
IFN-γ production vs GML treatment alone ([11]; 1% or 0.2% HSA, 10 μg/ml GML): significant restoration
IFN-γ production vs GML treatment alone ([11]; 2% HSA, both GML doses (10 and 20 μg/ml)): significantly restored
IFNγ production vs ethanol control [11, 18]: significantly reduced
IL-2 production vs GML in serum free media ([12]; 10 μg/ml GML, 2% and 1% HSA): significantly increased
IL-2 production vs GML in serum free conditions ([12]; 20 μg/ml GML, all HSA doses): did not have significantly increased
IL-2 production vs ethanol control [12, 18]: significantly reduced
IL-10 production vs control APBTs ([13]; 10 μg/ml GML, all doses of HSA): significantly increased
IL-10 production vs GML in serum free media ([13]; 20 μg/ml GML, all concentrations of HSA tested): did not restore
IL-10 production vs ethanol control [13, 18]: significantly reduced
TNF-α production vs GML in serum free media ([14]; 10 and 20 μg/ml GML, all concentrations of HSA): significantly increased
TNFα production vs ethanol control [14, 18]: significantly reduced
aqueous solubility cap ([15]; aqueous, under 37°C, stated as a fact, no reference printed for it): 100 µg/mL (≈ 364 µM)
solubility in gel formulations ([15]; topical GML in gel formulations ref [3],[19]): up to 50 mg/ml

OCC(O)CO [Glycerol, glycerol]
Kd [1]: > 50 µM
binding reaction with HSA ([1]; ITC, 5 μM HSA, 150 μM glycerol): did not have measurable binding reaction

CCCCCCCCCCCC(=O)O [LA, Lauric acid]
Kd [1, 16]: 4.9 ± 1.1 µM
ΔH [1, 16]: -24 kcal/mol and -24 ± 0.63 kcal/mol
n (stoichiometry) ([1]; ITC, single-site model, ligand:HSA): 1.1 ± 0.4
